# Reference: patent US20240124412A1, “IKAROS ZINC FINGER FAMILY DEGRADERS AND USES THEREOF” (Gilead Sciences, Inc., priority 2021, published 2024)
# Columns and labels:
# IKZF2 = biological target: T1, IKZF2 (Homo sapiens, UniProt Q96SW2+Q9UKS7); test: HiBiT protein tagging assay, in vitro IKZF2 degradation (HEK293); format: cell-based; conditions: HEK293, 18-24 hr incubation, normalized to DMSO control; for Dmax: HEK293, HiBiT assay, read-out: IKZF2 Dmax (maximum degradation at the highest concentration tested); for DC50: HiBiT assay, read-out: IKZF2 EC50
# T1 construct: expressed in transfected cells
# T1 sequence (Q9UKS7 1-500 isoform Q9UKS7-2): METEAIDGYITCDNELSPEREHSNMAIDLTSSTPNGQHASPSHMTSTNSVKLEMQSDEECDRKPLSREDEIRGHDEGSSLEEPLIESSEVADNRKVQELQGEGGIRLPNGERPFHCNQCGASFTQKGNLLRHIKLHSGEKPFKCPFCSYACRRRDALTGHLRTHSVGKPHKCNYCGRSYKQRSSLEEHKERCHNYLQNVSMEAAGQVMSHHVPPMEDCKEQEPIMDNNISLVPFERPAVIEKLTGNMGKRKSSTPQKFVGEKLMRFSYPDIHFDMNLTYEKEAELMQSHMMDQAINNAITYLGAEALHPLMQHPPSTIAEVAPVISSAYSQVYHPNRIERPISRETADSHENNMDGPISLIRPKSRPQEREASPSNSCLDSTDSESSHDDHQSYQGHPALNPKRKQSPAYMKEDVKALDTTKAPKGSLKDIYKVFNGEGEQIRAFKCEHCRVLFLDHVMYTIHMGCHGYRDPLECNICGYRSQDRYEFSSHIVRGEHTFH
# T1 sequence (Q96SW2 whole entry): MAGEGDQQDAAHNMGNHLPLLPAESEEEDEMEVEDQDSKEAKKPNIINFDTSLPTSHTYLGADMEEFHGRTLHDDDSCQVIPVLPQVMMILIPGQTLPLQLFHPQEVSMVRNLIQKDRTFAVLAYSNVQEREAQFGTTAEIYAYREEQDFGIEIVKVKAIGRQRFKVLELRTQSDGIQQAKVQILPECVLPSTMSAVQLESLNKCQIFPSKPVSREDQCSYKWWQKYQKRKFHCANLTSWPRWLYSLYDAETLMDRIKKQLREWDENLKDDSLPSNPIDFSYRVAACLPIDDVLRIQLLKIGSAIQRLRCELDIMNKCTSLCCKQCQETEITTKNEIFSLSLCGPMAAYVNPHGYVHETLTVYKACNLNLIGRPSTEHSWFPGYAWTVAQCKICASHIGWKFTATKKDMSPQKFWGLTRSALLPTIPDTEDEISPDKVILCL
# T1 sequence (Q16531 whole entry partner): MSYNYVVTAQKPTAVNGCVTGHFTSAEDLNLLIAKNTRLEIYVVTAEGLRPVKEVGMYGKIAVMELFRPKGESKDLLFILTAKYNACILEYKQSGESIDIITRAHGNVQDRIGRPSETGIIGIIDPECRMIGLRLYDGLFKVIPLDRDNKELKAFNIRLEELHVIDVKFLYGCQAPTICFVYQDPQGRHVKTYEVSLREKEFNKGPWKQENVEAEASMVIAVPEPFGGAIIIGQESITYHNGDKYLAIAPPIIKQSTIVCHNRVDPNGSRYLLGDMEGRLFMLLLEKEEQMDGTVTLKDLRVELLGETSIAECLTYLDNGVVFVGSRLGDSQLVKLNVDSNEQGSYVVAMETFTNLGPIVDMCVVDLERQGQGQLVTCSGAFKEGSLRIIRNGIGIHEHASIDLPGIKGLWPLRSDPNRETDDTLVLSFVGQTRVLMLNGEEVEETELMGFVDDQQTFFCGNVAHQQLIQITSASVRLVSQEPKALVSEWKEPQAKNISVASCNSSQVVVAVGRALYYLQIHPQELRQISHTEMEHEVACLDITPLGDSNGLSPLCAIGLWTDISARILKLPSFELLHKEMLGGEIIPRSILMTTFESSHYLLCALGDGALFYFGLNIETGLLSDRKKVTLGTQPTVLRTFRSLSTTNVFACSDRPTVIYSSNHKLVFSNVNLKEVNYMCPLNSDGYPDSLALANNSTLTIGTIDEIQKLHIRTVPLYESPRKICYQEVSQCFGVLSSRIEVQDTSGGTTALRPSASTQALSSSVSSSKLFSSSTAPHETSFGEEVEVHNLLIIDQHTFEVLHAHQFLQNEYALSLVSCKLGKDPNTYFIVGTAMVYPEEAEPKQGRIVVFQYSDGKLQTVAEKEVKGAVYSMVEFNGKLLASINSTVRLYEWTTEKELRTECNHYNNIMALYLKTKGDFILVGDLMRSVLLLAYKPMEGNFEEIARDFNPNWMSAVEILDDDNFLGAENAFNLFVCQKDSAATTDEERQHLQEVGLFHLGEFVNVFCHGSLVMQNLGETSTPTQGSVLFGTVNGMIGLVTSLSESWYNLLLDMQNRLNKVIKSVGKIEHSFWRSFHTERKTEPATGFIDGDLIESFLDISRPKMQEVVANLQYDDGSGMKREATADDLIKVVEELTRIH
# Procedure: (§1) In vitro degradation of IKZF1 and IKZF2 was measured using HiBiT protein tagging and detection technology (Promega).
# (§2) HiBiT technology (Promega) was used to develop the quantitative assays to measure the cellular IKZFs level by tagging an 11 amino acid HiBit peptides VSGWRLFKKIS (SEQ ID NO:1) to the protein of interest. Reporter plasmids were generated by fusing a linker sequence (GSSGGSSG; SEQ ID NO:2) followed by the HiBiT tag at the C terminus of IKZF1 and IKZF2. The fusion fragments were subsequently cloned into pcDNA5 pcDNA™5/FRT/TO plasmids (Thermo Fisher, cat #V652020) downstream of the Tetracycline operator. The resulting plasmids were co-transfected with pOG44 Flp-Recombinase Expression Vector (Thermo Fisher, cat #V600520) into Flp-In™ T-REx HEK293 line (Thermo Fisher, cat #R78077) and a stable cell pool was selected by adding 100 μg/ml of Hygromycin (Thermo Fisher, cat #10687010). The reporter cell enabled Tet-On inducible reporter expression from a single copy of the integrated gene.
# (§3) On Day 1, Cells were grown to ˜80% confluency in TC medium (DMEM Glutamax (Gibco10569), 10% Tet free FBS (Takara 631106), and PenStrep Glutamin (Gibco 10378)) in tissue culture flasks. Doxycycline was then added to a final concentration of 1 μg/ml to induce reporter expression at 37° C. overnight.
# (§4) On Day 2, 125 nL of serially-diluted solution of testing compounds were dispensed into 384-well white solid assay plates via ECHO acoustic liquid handler. Cells were lifted by 0.25% Trypsin (Gibco 25200) then pelleted by centrifugation (Beckman Avanti J-E) at 500×g for 5 min. Cell pellets were resuspended in TC medium at the concentration of 3e5/mL and 25 μL of cell suspension were added into each well of compound-spotted plates. The plates were returned to a 37° C. incubator overnight (18-24 hr).
# (§5) On Day 3, assay plates were removed from the TC incubator and 25 μL of Nano-Glo lytic detection system (Promega, cat #N3030) was added to each well. Plates were incubated at r.t. for 3 min with shaking, and luminescence was read using an Envision reader (Perkin Elmer).
# (§6) All raw data was normalized to DMSO control (final concentration: 0.5%) wells as POC and plotted out for EC50 and Dmax (Maximum degradation at the highest concentration tested in the assay).
# IKZF1 = biological target: T2, IKZF1 (Homo sapiens, UniProt Q13422+Q96SW2); test: HiBiT protein tagging assay, in vitro IKZF1 degradation (HEK293); format: cell-based; conditions: HEK293, 18-24 hr incubation, normalized to DMSO control; for Dmax: read-out: IKZF1 Dmax (maximum degradation at the highest concentration tested); for DC50: read-out: IKZF1 EC50
# T2 construct: expressed in transfected cells
# T2 sequence (Q13422 whole entry): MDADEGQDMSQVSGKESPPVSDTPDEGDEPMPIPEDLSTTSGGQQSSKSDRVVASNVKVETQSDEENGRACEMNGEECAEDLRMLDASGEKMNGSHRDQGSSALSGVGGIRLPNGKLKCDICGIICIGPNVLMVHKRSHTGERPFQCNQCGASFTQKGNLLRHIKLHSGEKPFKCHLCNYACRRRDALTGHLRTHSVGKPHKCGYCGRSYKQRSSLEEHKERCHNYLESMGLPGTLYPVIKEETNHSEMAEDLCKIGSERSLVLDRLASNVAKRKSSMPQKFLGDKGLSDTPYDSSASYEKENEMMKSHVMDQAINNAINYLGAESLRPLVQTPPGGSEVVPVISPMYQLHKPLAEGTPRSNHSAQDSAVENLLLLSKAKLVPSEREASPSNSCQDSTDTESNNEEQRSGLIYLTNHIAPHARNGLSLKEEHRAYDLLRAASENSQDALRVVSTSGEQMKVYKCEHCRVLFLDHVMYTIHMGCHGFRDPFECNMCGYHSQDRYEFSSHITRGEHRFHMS
# T2 sequence (Q96SW2 whole entry): as the sequence (Q96SW2 whole entry) above
# T2 sequence (Q16531 whole entry partner): as the sequence (Q16531 whole entry partner) above
# Procedure: as §1, §2, §3, §4, §5, §6
SMILES,Dmax (IKZF2) [%],DC50 (IKZF2) [nM],Dmax (IKZF1) [%],DC50 (IKZF1) [nM]
"O=C1CCC(N2Cc3cc(CN[C@H]4CCC[C@H](Cc5ccccc5)C4)ccc3C2=O)C(=O)N1 (relative stereo) [Example 11, 3-(5-((((1,3-trans)-3-benzylcyclohexyl)amino)methyl)-1-oxoisoindolin-2-yl)piperidine-2,6-dione]",68,81,67,25
"O=C1CCC(N2Cc3cc(CNCCc4ccccc4Cl)ccc3C2=O)C(=O)N1 (centres unmarked) [Example 44, 3-(5-(((2-chlorophenethyl)amino)methyl)-1-oxoisoindolin-2-yl)piperidine-2,6-dione]",32,240,72,38
"C[C@H](CO)NCc1ccc2c(c1)CN(C1CCC(=O)NC1=O)C2=O (stereo partly drawn) [Example 51, 3-[5-[[[(1R)-2-hydroxy-1-methyl-ethyl]amino]methyl]-1-oxo-isoindolin-2-yl]piperidine-2,6-dione]",17,1200,36,263
"O=C1CCC(N2Cc3cc(CN[C@H]4CCc5ccccc5C4)ccc3C2=O)C(=O)N1 (stereo partly drawn) [Example 13, 3-(1-oxo-5-((((S)-1,2,3,4-tetrahydronaphthalen-2-yl)amino)methyl)isoindolin-2-yl)piperidine-2,6-dione]",73,23,48,31
"O=C1CCC(N2Cc3cc(CN[C@@H]4CCCN(c5ccccc5)C4)ccc3C2=O)C(=O)N1 (stereo partly drawn) [Example 30, 3-(1-oxo-5-((((R)-1-phenylpiperidin-3-yl)amino)methyl)isoindolin-2-yl)piperidine-2,6-dione]",36,208,44,90
O=C1CCC(N2Cc3cc(CNC4CCC4)ccc3C2=O)C(=O)N1 (centres unmarked) [Example 41],42,373,31,51
"O=C1CCC(N2Cc3cc(CNC4CCN(c5cccnc5)CC4)ccc3C2=O)C(=O)N1 (centres unmarked) [Example 36, 3-(1-oxo-5-(((1-(pyridin-3-yl)piperidin-4-yl)amino)methyl)isoindolin-2-yl)piperidine-2,6-dione]",90,588,84,96
"O=C1CCC(N2Cc3cc(CNC4CCCCC4)ccc3C2=O)C(=O)N1 (centres unmarked) [Example 5, 3-(5-((Cyclohexylamino)methyl)-1-oxoisoindolin-2-yl)piperidine-2,6-dione]",78,118,38,123
"O=C1CCC(N2Cc3cc(CNC4CCN(Cc5ccccc5)CC4)ccc3C2=O)C(=O)N1 (centres unmarked) [Example 1, 3-(5-(((1-benzylpiperidin-4-yl)amino)methyl)-1-oxoisoindolin-2-yl)piperidine-2,6-dione]",67,342,51,255
O=C1CCC(N2Cc3cc(CNC4CCCC(c5ccccc5)C4)ccc3C2=O)C(=O)N1 (centres unmarked) [Example 50],51,166,30,47
"C[C@@H](c1ccccc1)N1CCC[C@@H](NCc2ccc3c(c2)CN(C2CCC(=O)NC2=O)C3=O)C1 (stereo partly drawn) [Example 27, 3-(1-oxo-5-((((R)-1-((S)-1-phenylethyl)piperidin-3-yl)amino)methyl)isoindolin-2-yl)piperidine-2,6-dione]",93,41,94,9
"O=C1CCC(N2Cc3cc(CNC4CCC(F)(F)CC4)ccc3C2=O)C(=O)N1 (centres unmarked) [Example 7, 3-(5-(((4,4-difluorocyclohexyl)amino)methyl)-1-oxoisoindolin-2-yl)piperidine-2,6-dione]",80,104,70,53
"O=C1CCC(N2Cc3cc(CN[C@H]4CCC[C@@H](Cc5ccccc5)C4)ccc3C2=O)C(=O)N1 (relative stereo) [Example 12, 3-(5-((((1,3-cis)-3-benzylcyclohexyl)amino)methyl)-1-oxoisoindolin-2-yl)piperidine-2,6-dione]",96,10,95,3
"O=C1CCC(N2Cc3cc(CNCC4CCc5ccccc5C4)ccc3C2=O)C(=O)N1 (centres unmarked) [Example 23, 3-(1-oxo-5-((((1,2,3,4-tetrahydronaphthalen-2-yl)methyl)amino)methyl)isoindolin-2-yl)piperidine-2,6-dione]",49,210,86,36
"O=C1CCC(N2Cc3cc(CN[C@@H]4CCCC[C@@H]4O)ccc3C2=O)C(=O)N1 (relative stereo) [Example 49, 3-(5-(((cis-2-Hydroxycyclohexyl)amino)methyl)-1-oxoisoindolin-2-yl)piperidine-2,6-dione]",70,449,38,153
"CC(C)NCc1ccc2c(c1)CN(C1CCC(=O)NC1=O)C2=O (centres unmarked) [Example 9, 3-(5-((isopropylamino)methyl)-1-oxoisoindolin-2-yl)piperidine-2,6-dione]",48,738,51,351
C[C@H]1CC[C@H](NCc2ccc3c(c2)CN(C2CCC(=O)NC2=O)C3=O)CC1 (some centres unmarked) [Example 47],82,182,41,189
"O=C1CCC(N2Cc3cc(CNC4CCOCC4)ccc3C2=O)C(=O)N1 (centres unmarked) [Example 6, 3-(1-oxo-5-(((tetrahydro-2H-pyran-4-yl)amino)methyl)isoindolin-2-yl)piperidine-2,6-dione]",78,181,92,148

# Results, then the compound that gave them:
Dmax (IKZF2) [%],DC50 (IKZF2) [nM],Dmax (IKZF1) [%],DC50 (IKZF1) [nM],SMILES
96,48,97,22,O=C1CCC(N2Cc3cc(CNC4CCCC(Cn5ncc6ccccc65)C4)ccc3C2=O)C(=O)N1 (centres unmarked) [Example 122]
76,139,42,127,C[C@H]1CC[C@@H](NCc2ccc3c(c2)CN(C2CCC(=O)NC2=O)C3=O)CC1 (some centres unmarked) [Example 89]
93,105,94,17,"C[C@H]1CC[C@@H](NCc2ccc3c(c2)CN(C2CCC(=O)NC2=O)C3=O)CN1Cc1ccccc1 (stereo partly drawn) [Example 119, 3-(5-((((3R,6S)-1-benzyl-6-methylpiperidin-3-yl)amino)methyl)-1-oxoisoindolin-2-yl)piperidine-2,6-dione]"
83,319,77,102,O=C1CCC(N2Cc3cc(CN[C@H]4CC[C@@](O)(c5ccccc5)CC4)ccc3C2=O)C(=O)N1 (some centres unmarked) [Example 66]
92,62,69,91,CC1(C)CCCC(NCc2ccc3c(c2)CN(C2CCC(=O)NC2=O)C3=O)C1 (centres unmarked) [Example 131]
92,43,75,74,O=C1CCC(N2Cc3cc(CNC4CC5CCC(C5)C4)ccc3C2=O)C(=O)N1 (centres unmarked) [Example 105]
81,115,30,1700,C[C@H]1CCCC[C@H]1NCc1ccc2c(c1)CN(C1CCC(=O)NC1=O)C2=O (some centres unmarked) [Example 78]
92,166,57,253,N#C[C@H]1CC[C@H](NCc2ccc3c(c2)CN(C2CCC(=O)NC2=O)C3=O)CC1 (some centres unmarked) [Example 80]
97,3,97,2,O=C1CCC(N2Cc3cc(CN[C@H]4CCCC[C@H]4OCc4ccccc4)ccc3C2=O)C(=O)N1 (some centres unmarked) [Example 120]
90,67,86,29,O=C1CCC(N2Cc3cc(CN[C@H]4CC[C@](O)(c5ccccc5)CC4)ccc3C2=O)C(=O)N1 (some centres unmarked) [Example 65]
84,401,55,403,O=C1CCC(N2Cc3cc(CNC4CCC5(CC4)COC5)ccc3C2=O)C(=O)N1 (centres unmarked) [Example 60]
